The test concerns sunflower GM40 (Manteiner Line, A122T). As to the kind of experiment: Greenhouse whole-plant imazapir dose response (Example 8). The following applies: 14 DAT. The format is in vivo, Helianthus annuus.

Turning to `CC(C)C1(C)N=C(c2ncccc2C(=O)O)NC1=O` (stereo not drawn) [imazapir, imazapyr], the “biomass accumulation (dry biomass, % of untreated)” value is, setting by setting: (0.5× (40 g ai/ha)) 96.5%; (1× (80 g ai/ha)) 94.1%; (2× (160 g ai/ha)) 97.6%; (3× (240 g ai/ha)) 95.8%; (4× (320 g ai/ha)) 88.3%; (5× (400 g ai/ha)) 85.6%. Also, the “biomass accumulation (dry biomass, % of untreated)” value (6× (480 g ai/ha)) stood at 76.8%. For the same molecule, the “plant height (% of untreated)” value (0.5× (40 g ai/ha)) was 99.6%; the “plant height (% of untreated)” value (1× (80 g ai/ha)) is 97.4%; the “plant height (% of untreated)” value (2× (160 g ai/ha)) is reported as 95.2%; the “plant height (% of untreated)” value (3× (240 g ai/ha)) is 93.0%; the “plant height (% of untreated)” value (4× (320 g ai/ha)) was 93.0%; the “plant height (% of untreated)” value (5× (400 g ai/ha)) was found to be 93.9%. Also, the “plant height (% of untreated)” value (6× (480 g ai/ha)) is given as 84.3%. Besides, the “root dry weight (% of untreated)” value reads like this: (0.5× (40 g ai/ha)) 100%; (1× (80 g ai/ha)) 100%; (2× (160 g ai/ha)) 100%; (3× (240 g ai/ha)) 92.2%; (4× (320 g ai/ha)) 96.1%; (5× (400 g ai/ha)) 84.2%. Moreover, the “root dry weight (% of untreated)” value (6× (480 g ai/ha)) was 74.3%.
